As a reminder, the IC50 is the concentration at which inhibition is half-maximal.

Data on 7 molecules can be found in publication PMC7074381, “Investigating the Antiparasitic Potential of the Marine Sesquiterpene Avarone, Its Reduced Form Avarol, and the Novel Semisynthetic Thiazinoquinone Analogue Thiazoavarone” (Marine Drugs, 2020).

Like-named read-outs stand apart in the source and are kept apart here.

In assay [1] the test system is P. falciparum D10 (CQ-sensitive) strain. The assay is described as follows: antiplasmodial pLDH drug susceptibility assay, asexual parasites, D10 strain. It counts as cell-based. The note with it: for IC50: Plasmodium falciparum, read-out: D10 IC50; for SI D10: SI = IC50 HMEC-1/IC50 P. falciparum D10. The method, then: (§1) P. falciparum cultures were carried out according to Trager and Jensen with slight modifications. The CQ-sensitive strain D10 and the CQ-resistant strain W2 were maintained at 5% hematocrit (human type A-positive red blood cells) in RPMI 1640 (EuroClone, Celbio) medium with the addition of 1% AlbuMax (Invitrogen, Milan, Italy), 0.01% hypoxanthine, 20 mM Hepes, and 2 mM glutamine at 37 °C in a standard gas mixture (1% O2, 5% CO2, and 94% N2). […] Drugs were placed in 96-well flat-bottomed microplates and serial dilutions made. Asynchronous cultures with parasitaemia of 1%–1.5% and 1% final hematocrit were aliquoted into the plates and incubated for 72 h at 37 °C. Parasite growth was determined spectrophotometrically (OD650) by measuring the activity of the parasite lactate dehydrogenase (pLDH), according to a modified version of the method of Makler in control and drug-treated cultures. The antiplasmodial activity is expressed as 50% inhibitory concentrations (IC50); each IC50 value is the mean ± standard deviation of at least three separate experiments performed in duplicate.

The test system of assay [2] is P. falciparum W2 (CQ-resistant) strain. The assay is described as follows: antiplasmodial pLDH drug susceptibility assay, asexual parasites, W2 strain. To be noted: for IC50: Plasmodium falciparum, read-out: W2 IC50; for SI W2: SI = IC50 HMEC-1/IC50 P. falciparum W2. It counts as cell-based. The method, then: as §1
Assay [3] relates to L. tropica promastigotes (MHOM/IT/2012/ISS3130). Briefly: promastigote susceptibility MTT assay, L. tropica. Type of assay: cell-based. To be noted: for IC50: Leishmania tropica, promastigote stage, 72 h, MTT, mean ± SD of three experiments; for SIp (L. tropica): SIp = IC50 HMEC-1/IC50 L. tropica promastigotes. The method, then:
(§2) Promastigote stage of L. infantum strain MHOM/TN/80/IPT1 and L. tropica (MHOM/IT/2012/ISS3130) were cultured in Schneider’s Drosophila medium (Lonza) supplemented with 10% heat-inactivated fetal calf serum (HyClone) at 24 °C.
(§3) The complete medium used for antileishmanial activity assay was RPMI (EuroClone) supplemented with 10% heat-inactivated fetal calf serum (EuroClone), 20 mM Hepes, and 2 mM L-glutamine. To estimate the 50% inhibitory concentration (IC50), the MTT (3-[4.5-dimethylthiazol-2-yl]-2.5-diphenyltetrazolium bromide) method was used. Compounds were dissolved in DMSO and then diluted with medium to achieve the required concentrations. Drugs were placed in 96-well round-bottom microplates and seven serial dilutions made. Amphotericin B was used as the reference anti-leishmanial drug. Parasites were diluted in complete medium to 5 × 10^6 parasites/mL and 100 μL of the suspension was seeded into the plates, incubated at 24 °C for 72 h and then 20 µL of MTT solution (5 mg/mL) was added into each well for 3 h. The plates were then centrifuged, the supernatants discarded and the resulting pellets dissolved in 100 µL of lysing buffer consisting of 20% (w/v) of a solution of SDS (Sigma), 40% of N,N-dimethylformamide (Merck) in H2O. The absorbance was measured spectrophotometrically at a test wavelength of 550 nm and a reference wavelength of 650 nm. The results are expressed as IC50 which is the dose of compound necessary to inhibit parasite growth by 50%; each IC50 value is the mean ± standard deviation of separate experiments performed in duplicate.

For assay [4], the system named is HMEC-1 (human microvascular endothelial cells). Briefly: cytotoxicity MTT assay on HMEC-1. It counts as cell-based. To be noted: mean ± SD of three experiments in duplicate. Here is the method: (§4) The long-term human microvascular endothelial cell line (HMEC-1) was maintained in MCDB 131 medium (Invitrogen, Milan, Italy) supplemented with 10% fetal calf serum (HyClone, Celbio, Milan, Italy), 10 ng/mL of epidermal growth factor,1 µg/ml of hydrocortisone, 2 mM glutamine and 20 mM Hepes buffer (EuroClone). For the cytotoxicity assays, HMEC-1 were plated at 10^5 cells/mL in 96-well flat bottom microplates. THP-1 cells were plated at 5 × 10^5 cells/mL in 96-well flat bottom microplates and treated with 0.1 μM PMA for 48 h to achieve differentiation into macrophages. Cells were then treated with serial dilutions of test compounds and cell proliferation evaluated using the MTT assay described for promastigotes. The results are expressed as IC50, which is the dose of compound necessary to inhibit cell growth by 50%.
Background: Formazan colour is commonly taken as a measure of viable cells.

For assay [5], the system named is Pf gametocytes stage V 3D7elo1-pfs16-CBG99. The assay is described as follows: gametocyte susceptibility assay (luciferase viability). It counts as cell-based, P. falciparum. The note with it: Plasmodium falciparum, 72 h, mean ± SD of three experiments. Here is the method:
The transgenic P. falciparum 3D7 strain 3D7elo1-pfs16-CBG99 expressing the Pyrophorus plagiophthalamus CBG99 luciferase under a gametocyte specific promoter was used in all the experiments. Parasites were cultured and gametocytes obtained as previously described. Late-stage gametocytes were exposed to compounds at day 11 after N-acetylglucosamine (NAG) addition. Gametocytes stages were counted in Giemsa stained smears and the percentage of stage V gametocytes was higher than 80%. Compounds were prepared by serial dilution, in 96-well plate, in complete medium. Plates were incubated for 72 h at 37 °C under 1% O2, 5% CO2, 94% N2 atmosphere. Luciferase activity was taken as measure of gametocytes viability, as previously described. Briefly, drug-treated gametocyte samples at 2% haematocrit were transferred to 96-well black microplates and D-luciferin (1 mM in citrate buffer 0.1 M, pH 5.5) was added at a 1:1 volume ratio. Luminescence measurements were performed after 10 min with 500 ms integration time using a Sinergy 4 (Biotek) microplate reader. The IC50 was extrapolated from the non-linear regression analysis of the concentration–response curve.

The subject of assay [6] is L. infantum amastigotes. Briefly: intracellular amastigote susceptibility assay in THP-1 macrophages. The note with it: for IC50: Leishmania infantum, intracellular amastigotes in THP-1 macrophages, 72 h, mean of two experiments in triplicate; for SIa: SIa = IC50 HMEC-1/IC50 L. infantum amastigotes. Type of assay: cell-based. Here is the method: Cells were washed and infected with metacyclic L. infantum promastigotes at a macrophage/promastigote ratio of 1/10 for 24 h. Cell monolayers were then washed and incubated in the presence of test compounds for 72 h. Slides were fixed with methanol and stained with Giemsa. The percentage of infected macrophages in treated and non-treated cells was determined by light microscopy.

In assay [7] the test system is S. mansoni adult worm pairs. Briefly: adult worm pair viability assay (phenotypic score). Type of assay: cell-based. The note with it: 20 μM, 7 days. An excerpt:
(§5) A Puerto Rican strain of S. mansoni was maintained by passage through albino Biomphalaria glabrata, as the intermediate host, and ICR (CD-1) outbred female mice as previously described. Female 4 to 7-week-old mice (Envigo, Udine, Italy) were infected with 200–400 double sex S. mansoni cercariae by the tail immersion technique. Adult pairs were harvested from mice 7–8 weeks after infection by reversed perfusion of the hepatic portal system and mesenteric veins. For the viability assays, 5 couples were incubated with the compounds in 3 mL DMEM complete tissue culture medium containing 10% FBS for up to 7 days and phenotypic score was assigned as previously described. For egg-treatment, 5 worm pairs were incubated for 48 h in 3 mL complete tissue culture medium; next the parasites were removed and vehicle (DMSO) or compounds 1–3 were added to each plate containing the eggs previously laid in vitro and observed for 72 h as previously reported. Briefly, images were recorded with a BX41 Olympus microscope and a bright field objective 10× served by a SPOT RT 220-3 Diagnostic Instrument Inc camera. Egg maturation/morphological score was assigned based on the Vogel and Prata’ staging system of egg maturation.

Assay [8] deals with L. infantum promastigotes (strain MHOM/TN/80/IPT1). Briefly: promastigote susceptibility MTT assay, L. infantum. To be noted: for IC50: Leishmania infantum, promastigote stage, 72 h, MTT, mean ± SD of three experiments; for SIp (L. infantum): SIp = IC50 HMEC-1/IC50 L. infantum promastigotes. It counts as cell-based. Here is the method: as §2, §3
The subject of assay [9] is THP-1 (human acute monocytic leukemia cells). Briefly: cytotoxicity MTT assay on THP-1 differentiated into macrophages. It counts as cell-based. The note with it: PMA-differentiated macrophages, mean of two experiments in duplicate. The method, then:
as §4

For assay [10], the system named is S. mansoni in vitro laid eggs (IVLEs). The assay is described as follows: in vitro laid eggs (IVLEs) maturation/morphology assay. The note with it: 72 h. Type of assay: cell-based.
From the text: as §5

[11] abbreviates: asexual parasites, CQ-sensitive D10 strain, 72 h, pLDH, mean ± SD of three experiments in duplicate.
The mark [12] stands for this setting: asexual parasites, CQ-resistant W2 strain, 72 h, pLDH, mean ± SD of three experiments in duplicate.

On to `CCN(CC)CCCC(C)Nc1ccnc2cc(Cl)ccc12` (stereo not drawn) [Chloroquine (CQ), Chloroquine, reference compound], for which the 50% inhibitory concentration (IC50) in assay [1] (D10, 72 h) was found to be 0.04 µM; in assay [2] (W2, 72 h) it was 0.54 µM.

On to `CC1=CCC[C@H]2[C@](C)(Cc3cc(O)ccc3O)[C@@H](C)CC[C@]12C` [Avarol (3), avarol], for which the IC50 in assay [3] is 7.08 ± 1.91 µM; in assay [4], 36.9 ± 5.79 µM; in assay [5] it was 9.3 ± 1.9 µM; in [6] it was 3.19 µM; in [8], 7.42 ± 0.27 µM; in assay [9], 31.8 µM. Also, the IC50 was found to be 0.96 ± 0.24 µM in [1] (setting [11]) and 1.1 ± 0.15 µM in assay [2] (setting [12]). Further, in assay [3], the “SIp (L. tropica)” value was 5.2. For the same molecule, the figures for the SIa in assay [6] and in [6] (listed as avarol 3) were 11.6 and “greater than 10”, respectively. Also, the “survival of adult worm pairs” value in [7] stood at 20%. Further, in [8], the “SIp (L. infantum)” value amounted to 5.0. In addition, the “SI D10” value in assay [1] is reported as 38.4. Further, the “SI W2” value in assay [2] was found to be 33.5.

Turning to `CN(C)c1ccc2nc3ccc(=[N+](C)C)cc-3sc2c1` [Methylene blue, reference compound], in assay [5], the IC50 stood at 0.155 ± 0.05 µM.

In the case of `C[C@@H]1[C@H](O)[C@@H](C)/C=C/C=C/C=C/C=C/C=C/C=C/C=C/[C@H](O[C@@H]2O[C@H](C)[C@@H](O)[C@H](N)[C@@H]2O)C[C@@H]2O[C@](O)(C[C@@H](O)C[C@@H](O)[C@H](O)CC[C@@H](O)C[C@@H](O)CC(=O)O[C@H]1C)C[C@H](O)[C@H]2C(=O)O` [Amphotericin B, reference compound], the IC50 is 0.17 ± 0.04 µM in assay [3], 0.189 µM in assay [6] and 0.2 ± 0.03 µM in assay [8].

Turning to `CC1=CCC[C@H]2[C@](C)(CC3=CC(=O)C4=C(C3=O)S(=O)(=O)CCN4)[C@@H](C)CC[C@]12C` [Thiazoavarone (2), thiazoavarone], the “effect on egg maturation (IVLEs)” value in [10] (5 μM) was “impairing eggs maturation”; in assay [10] (20 μM), “undeveloped and severely damaged eggs”. Further, the IC50 in assay [3] turned out to be 9.52 ± 0.32 µM; in assay [4], 3.31 ± 1.53 µM; in assay [5], 15 ± 3.19 µM; in assay [6], 4.99 µM; in assay [8], 8.78 ± 0.26 µM; in [9], 7.41 µM. The half-maximal inhibitory concentration (IC50) in assay [1] (setting [11]) was found to be 0.38 ± 0.15 µM; in assay [2] (setting [12]), 0.21 ± 0.03 µM. In addition, in assay [3], the “SIp (L. tropica)” value worked out at 0.35. The SIa in [6] came to 0.67. Further, the “effect on adult stage viability” value in assay [7] is recorded as “poorly effective”. The “SIp (L. infantum)” value in [8] worked out at 0.38. For the same molecule, the “SI D10” value in assay [1] came to 8.7. In addition, in assay [2], the “SI W2” value worked out at 15.8.

The molecule `CC[C@@]1(O)C(=O)OCc2c1cc1n(c2=O)Cc2cc3ccccc3nc2-1` [Camptothecin, reference compound] registered an IC50 in assay [4] of 0.018 µM.

Regarding `CC1=CCC[C@H]2[C@](C)(CC3=CC(=O)C=CC3=O)[C@@H](C)CC[C@]12C` [Avarone (1), avarone], the IC50 is 20.3 ± 3.56 µM in assay [3]; 62.2 ± 1.98 µM in assay [4]; 15.5 ± 5.26 µM in assay [5]; 7.64 µM in assay [6]; 28.2 ± 0.32 µM in assay [8]; > 100 µM in [9]. Further, the IC50 in [1] (setting [11]) worked out at 2.74 ± 0.51 µM; in [2] (setting [12]), 2.09 ± 0.52 µM. Further, the “SIp (L. tropica)” value in assay [3] stood at 3.1. Also, in assay [6], the SIa is listed as 8.1. Besides, in [8], the “SIp (L. infantum)” value is on record as 2.2. In assay [1], the “SI D10” value is listed as 22.7. Further, in assay [2], the “SI W2” value is 29.8.
